From patent publication US20230173032A1, “Treatment of Hyperuricemia” (Frederiksberg Hospital, priority 2020, published 2023)

What was measured:
[1] = Semaglutide case studies: treatment emergent adverse events; type: in vivo, human
Description: Two patients with chronic gout and no diabetes where treated with another type of GLP-1 analog: Semaglutide subcutaneous (sc) once weekly.
Person, gout since more than 3 years no diabetes. Received 0.25 mg weekly for 6 weeks and then 0.5 mg twice.
Person, gout since more than 4 years, no diabetes. Received 0.25 mg sc for 6 weeks and 0.5 mg sc for 4 weeks.

[2] = LOSE-IT trial (NCT02905864): serious adverse events and deaths; type: in vivo, human; details: liraglutide 3 mg/day, 52 weeks
Description: Methods: In the LOSE-IT trial (NCT02905864), a randomised, double-blinded, placebo-controlled, parallel group, single-centre trial, 156 overweight and obese individuals with knee joint pain, were offered an initial 8-week intensive diet intervention (week −8 to 0) on Cambridge Weight Plan (800-1000 kcal/day) followed by a weight loss maintenance period in which participants were randomised to either liraglutide 3 mg/day or placebo for 52 weeks. Subjects with type 1 diabetes or type 2 diabetes with glucose-lowering drugs other than metformin were excluded from the study.

| SMILES | treatment emergent adverse events, Patient 1 ([1]; 8 weeks treatment, nausea during the first 2 weeks) | treatment emergent adverse events, Patient 2 ([1]; 10 weeks treatment) | deaths [2] | participants who experienced serious adverse events [2] |
| --- | --- | --- | --- | --- |
| CC[C@H](C)[C@H](NC(=O)[C@H](Cc1ccccc1)NC(=O)[C@H](CCC(=O)O)NC(=O)[C@H](CCCCNC(=O)COCCOCCNC(=O)COCCOCCNC(=O)CC[C@H](NC(=O)CCCCCCCCCCCCCCCCC(=O)O)C(=O)O)NC(=O)[C@H](C)NC(=O)[C@H](C)NC(=O)[C@H](CCC(N)=O)NC(=O)CNC(=O)[C@H](CCC(=O)O)NC(=O)[C@H](CC(C)C)NC(=O)[C@H](Cc1ccc(O)cc1)NC(=O)[C@H](CO)NC(=O)[C@H](CO)NC(=O)[C@@H](NC(=O)[C@H](CC(=O)O)NC(=O)[C@H](CO)NC(=O)[C@@H](NC(=O)[C@H](Cc1ccccc1)NC(=O)[C@@H](NC(=O)CNC(=O)[C@H](CCC(=O)O)NC(=O)C(C)(C)NC(=O)[C@@H](N)Cc1cnc[nH]1)[C@@H](C)O)[C@@H](C)O)C(C)C)C(=O)N[C@@H](C)C(=O)N[C@@H](Cc1c[nH]c2ccccc12)C(=O)N[C@@H](CC(C)C)C(=O)N[C@H](C(=O)N[C@@H](CCCNC(=N)N)C(=O)NCC(=O)N[C@@H](CCCNC(=N)N)C(=O)NCC(=O)O)C(C)C [Semaglutide] | No treatment emergent adverse events were experienced apart from slight nausea | No treatment emergent adverse events were experienced apart from slight constipation | – | – |
| CCCCCCCCCCCCCCCC(=O)N[C@@H](CCC(=O)NCCCC[C@H](NC(=O)[C@H](C)NC(=O)[C@H](C)NC(=O)[C@H](CCC(N)=O)NC(=O)CNC(=O)[C@H](CCC(=O)O)NC(=O)[C@H](CC(C)C)NC(=O)[C@H](Cc1ccc(O)cc1)NC(=O)[C@H](CO)NC(=O)[C@H](CO)NC(=O)[C@@H](NC(=O)[C@H](CC(=O)O)NC(=O)[C@H](CO)NC(=O)[C@@H](NC(=O)[C@H](Cc1ccccc1)NC(=O)[C@@H](NC(=O)CNC(=O)[C@H](CCC(=O)O)NC(=O)[C@H](C)NC(=O)[C@@H](N)Cc1cnc[nH]1)[C@@H](C)O)[C@@H](C)O)C(C)C)C(=O)N[C@@H](CCC(=O)O)C(=O)N[C@@H](Cc1ccccc1)C(=O)N[C@H](C(=O)N[C@@H](C)C(=O)N[C@@H](Cc1c[nH]c2ccccc12)C(=O)N[C@@H](CC(C)C)C(=O)N[C@H](C(=O)N[C@@H](CCCNC(=N)N)C(=O)NCC(=O)N[C@@H](CCCNC(=N)N)C(=O)NCC(=O)O)C(C)C)[C@@H](C)CC)C(=O)O [liraglutide, Arg34, Lys26-(N-epsilon-(gamma-L-glutamyl(N-alfa-hexadecanoyl)))-GLP-I(7-37)] | – | – | no deaths were observed | Four |
